For 14 molecules, EC50 results are on record in patent publication US10730911B2, “Backbone-cyclized peptidomimetics with GLP-1R modulating activity” (POLYPHOR AG, priority 2015, dated 2020).

Where a SMILES comes first, the peptide text is derived from it. [ ]: non-standard residue; d: D form. The star is where a group is joined. Trp(5-OH) = N[C@@H](Cc1c[nH]c2ccc(O)cc12)C(=O)O; His(π-Bn) = N[C@@H](Cc1cncn1Cc1ccccc1)C(=O)O; Phe(4-NH2) = Nc1ccc(C[C@H](N)C(=O)O)cc1; 3Pal = N[C@@H](Cc1cccnc1)C(=O)O; Ac6c = NC1(C(=O)O)CCCCC1; Dpg = CCCC(N)(CCC)C(=O)O; Bn = c1ccc(C*)cc1

The target of this experiment is T1, human glucagon-like peptide-1 receptor (GLP-1R) (Homo sapiens, UniProt P43220).
T1 construct: host or cells: CHO chAMPion cells
T1 sequence (P43220 24-463): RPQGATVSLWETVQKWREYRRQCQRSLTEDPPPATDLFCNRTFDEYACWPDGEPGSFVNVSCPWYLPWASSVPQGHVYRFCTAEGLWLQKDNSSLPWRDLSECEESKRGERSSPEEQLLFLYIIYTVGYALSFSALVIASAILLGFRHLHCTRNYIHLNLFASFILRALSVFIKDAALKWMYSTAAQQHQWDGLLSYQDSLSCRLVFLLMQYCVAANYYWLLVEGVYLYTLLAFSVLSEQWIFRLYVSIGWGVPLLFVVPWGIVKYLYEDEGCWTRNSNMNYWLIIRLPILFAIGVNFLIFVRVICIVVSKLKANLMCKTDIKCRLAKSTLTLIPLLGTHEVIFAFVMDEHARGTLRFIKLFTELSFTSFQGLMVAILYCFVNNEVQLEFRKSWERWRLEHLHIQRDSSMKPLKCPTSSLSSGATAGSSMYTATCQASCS
Put plainly: Human GLP-1 receptor cell-based assay (flash luminescence, Target Activation phase). The following applies: CHO chAMPion cells stably co-expressing human GLP-1R, Photina and cAMP-activated calcium channel; agonist activity; normalization by forskolin at 10 μM; ^a) values from single experiment; read-out: EC50 (μM) Target Activation (TA). The text has this: CHO chAMPion cells (Axxam SpA; S. Corazza, Assay Drug Dev. Technol. 2009, 7, 304-307) stably co-expressing the human glucagon-like peptide-1 receptor (GLP-1R), the Ca^2+-sensitive photoprotein PHOTINA® (S. Bovolenta et al., J. Biomol. Screen. 2007, 12, 694-704) and a mutated cAMP-activated calcium ion channel (WO2004/083803 A2) were used to monitor GLP-1R signaling after stimulation with an agonist. Activation of the Gas-coupled GPCR GLP-1R was monitored by measuring the flash luminescence of the Ca^2+-sensitive photoprotein as reporter system with FLIPR^TETRA screening instrumentation (Molecular Devices) upgraded with an ICCD Camera (MDC). For data quality check and data analysis the Genedata SCREENER® software was used.
The reference agonist GLP-1 (glucagon-like peptide-1 amide fragment 7-36) and forskolin were purchased from Sigma (cat. G8147 and F6886, respectively) and prepared according to each ligand's specifications. All handling of ligands were done to ensure proper control throughout the experiments. The steps of the implemented workflow and data analysis are mainly as follows:
Stably transfected chAMPion cells are seeded 10000 c/w in 384 MTP in Dulbecco's MEM/nutrient mix F12 (BioWhittaker cat. BE04-687F/U1; 500 mL) supplemented with sodium pyruvate (BioWhittaker cat. BE13-115E; 5 mL of 100 mM solution), HEPES (BioWhittaker cat. BE17-737E; 6.5 mL of 1M solution), sodium bicarbonate (BioWhittaker cat. BE17-613E; 25 mL of 7.5% solution), fetal bovine serum (Euroclone cat. ECS 0180L; 50 mL), penicillin-streptomycin (BioWhittaker cat. DE17-602E; 5 mL of 100×solution), 1 mg/mL G418 (selection antibiotic for GLP-1R) and 200 μg/mL hygromycin in 25 μL/well for 24 hours. On the day of the experiment, plates are removed from the incubator, freed from the growth medium, equilibrated at room temperature for 1 h, loaded with 30 μl/well of Ca^2+ free Tyrode's buffer containing 20 μM coelentrazine and 500 μM IBMX, and incubated for 4 hours at room temperature.
All compounds were tested at 8 concentrations, starting from 50 μM in quadruplicate, intra-plate (dilution step 1:2.15) to determine EC50 values. After incubation, the volume in all the wells is flattened to 20 αL by aspiration with a CYBIO®-VARIO pipettor. First Injection (10 μL of test compounds in Ca^2+ free Tyrode's buffer, DMSO 0.5% v/v and BSA 0.01%; or 10 μL of reference compounds GLP-1 or forskolin in Ca′ free Tyrode's buffer, DMSO 0.5% v/v and BSA 0.01%) is performed by the FLIPR^TETRA and the kinetic response is optionally monitored over a period of 60 seconds. Incubation for 30 minutes at room temperature is followed by the Second Injection (Tyrode's buffer+10 mM CaCl2)) and the kinetic response is monitored over a period of 60 seconds.
The kinetic response is divided into two distinct phases: monitoring the kinetic response after the First Injection, termed Compound Addition (CA), and monitoring the kinetic response after the Second Injection of 10 mM CaCl2, termed Target Activation (TA). Agonist activity of compounds is evaluated in the Target Activation (TA) phase and it is based on normalization to TA activation by forskolin at 10 μM or GLP-1 at 3.16 nM (EC100)
A good correlation was observed between EC50, data normalized by forskolin and by GLP-1.
Turning to `C[C@@H]1NC(=O)[C@H](Cc2ccc(O)cc2)NC(=O)[C@H](CCC(N)=O)NC(=O)[C@H](Cc2c[nH]c3ccccc23)NC(=O)[C@H](Cc2ccccc2)NC(=O)C2(CCCCC2)NC(=O)[C@H]2CCCN2C(=O)[C@H](Cc2cncn2Cc2ccccc2)NC(=O)[C@H](CCC(=O)O)NC(=O)[C@H](Cc2c[nH]c3ccccc23)NC1=O` [compound 15, cyclo(-Phe-Trp-Gln-Tyr-Ala-Trp-Glu-His(Bn)-^DPro-Chx-)] (cyclo(FWQYAWE[His(π-Bn)][dP][Ac6c])), the EC50 was determined as 0.7 ± 0.42 µM. Next, `CC(C)C[C@@H]1NC(=O)[C@H](CCC(=O)O)NC(=O)[C@H](Cc2ccccc2)NC(=O)C2(CCCCC2)NC(=O)[C@H]2CCCN2C(=O)[C@H](Cc2c[nH]c3ccccc23)NC(=O)[C@H](CCC(=O)O)NC(=O)[C@H](Cc2c[nH]c3ccccc23)NC(=O)[C@H](C)NC(=O)[C@H](Cc2ccc(O)cc2)NC1=O` [compound 16, cyclo(-Phe-Glu-Leu-Tyr-Ala-Trp-Glu-Trp-^DPro-Chx-)] (cyclo(FELYAWEW[dP][Ac6c])): 0.41 µM; `C[C@@H]1NC(=O)[C@H](Cc2ccc(O)cc2)NC(=O)[C@H](CCC(N)=O)NC(=O)[C@H](Cc2c[nH]c3ccccc23)NC(=O)[C@H](Cc2ccccc2)NC(=O)C2(CCCCC2)NC(=O)[C@H]2CCCN2C(=O)[C@H](Cc2c[nH]c3ccccc23)NC(=O)[C@H](CCC(=O)O)NC(=O)[C@H](Cc2c[nH]c3ccccc23)NC1=O` [compound 17, cyclo(-Phe-Trp-Gln-Tyr-Ala-Trp-Glu-Trp-^DPro-Chx-)] (cyclo(FWQYAWEW[dP][Ac6c])): 0.6 ± 0.29 µM; `C[C@@H]1NC(=O)[C@H](Cc2ccc(O)cc2)NC(=O)[C@H](CCC(N)=O)NC(=O)[C@H](Cc2c[nH]c3ccccc23)NC(=O)[C@H](Cc2ccccc2)NC(=O)C2(CCCCC2)NC(=O)[C@H]2CCCN2C(=O)[C@H](Cc2c[nH]c3ccc(O)cc23)NC(=O)[C@H](CCC(=O)O)NC(=O)[C@H](Cc2c[nH]c3ccccc23)NC1=O` [compound 18, cyclo(-Phe-Trp-Gln-Tyr-Ala-Trp-Glu-Trp(5OH)-^DPro-Chx-)] (cyclo(FWQYAWE[Trp(5-OH)][dP][Ac6c])): 0.82 ± 0.55 µM.

With `C[C@@H]1NC(=O)[C@H](Cc2ccc(O)cc2)NC(=O)[C@H](CCC(N)=O)NC(=O)[C@H](Cc2cccnc2)NC(=O)[C@H](Cc2ccccc2)NC(=O)C2(CCCCC2)NC(=O)[C@H]2CCCN2C(=O)[C@H](CCCNC(=N)N)NC(=O)[C@H](CCC(=O)O)NC(=O)[C@H](Cc2c[nH]c3ccccc23)NC1=O` [compound 19, cyclo(-Phe-3Pal-Gln-Tyr-Ala-Trp-Glu-Arg-^DPro-Chx-)] (cyclo(F[3Pal]QYAWER[dP][Ac6c])), the EC50 is 0.72 ± 0.38 µM. Turning to `CC(C)C[C@@H]1NC(=O)[C@H](Cc2c[nH]cn2)NC(=O)[C@H](Cc2ccccc2)NC(=O)C2(CCCCC2)NC(=O)[C@H]2CCCN2C(=O)[C@H](Cc2ccc(O)cc2)NC(=O)[C@H](CCC(=O)O)NC(=O)[C@H](Cc2c[nH]c3ccccc23)NC(=O)[C@H](C)NC(=O)[C@H](Cc2ccc(O)cc2)NC1=O` [compound 20, cyclo(-Phe-His-Leu-Tyr-Ala-Trp-Glu-Tyr-^DPro-Chx-)] (cyclo(FHLYAWEY[dP][Ac6c])), the EC50 was determined as 0.59 ± 0.35 µM. Next, `C[C@@H]1NC(=O)[C@H](Cc2ccc(O)cc2)NC(=O)[C@H](CCC(N)=O)NC(=O)[C@H](Cc2ccc(N)cc2)NC(=O)[C@H](Cc2ccccc2)NC(=O)C2(CCCCC2)NC(=O)[C@H]2CCCN2C(=O)[C@H](CCCNC(=N)N)NC(=O)[C@H](CCC(=O)O)NC(=O)[C@H](Cc2c[nH]c3ccccc23)NC1=O` [compound 21, cyclo(-Phe-Phe(4NH2)-Gln-Tyr-Ala-Trp-Glu-Arg-^DPro-Chx-)] (cyclo(F[Phe(4-NH2)]QYAWER[dP][Ac6c])): 0.67 ± 0.28 µM.

As to `C[C@@H]1NC(=O)[C@H](Cc2ccc(O)cc2)NC(=O)[C@H](CCC(N)=O)NC(=O)[C@H](Cc2c[nH]c3ccccc23)NC(=O)[C@H](Cc2ccccc2)NC(=O)C2(CCCCC2)NC(=O)[C@H]2CCCN2C(=O)[C@H](Cc2ccc(OCc3ccccc3)cc2)NC(=O)[C@H](CCC(=O)O)NC(=O)[C@H](Cc2c[nH]c3ccccc23)NC1=O` [compound 22, cyclo(-Phe-Trp-Gln-Tyr-Ala-Trp-Glu-Tyr(Bn)-^DPro-Chx-)] (cyclo(FWQYAWEY(Bn)[dP][Ac6c])), the EC50 amounted to 0.72 ± 0.4 µM.

As to `COc1ccc(C[C@@H]2NC(=O)[C@H](CCC(N)=O)NC(=O)[C@H](Cc3c[nH]c4ccccc34)NC(=O)[C@H](Cc3ccccc3)NC(=O)C3(CCCCC3)NC(=O)[C@H]3CCCN3C(=O)[C@H](CCCNC(=N)N)NC(=O)[C@H](CCC(=O)O)NC(=O)[C@H](Cc3c[nH]c4ccccc34)NC(=O)[C@H](C)NC2=O)cc1` [compound 23, cyclo(-Phe-Trp-Gln-Tyr(Me)-Ala-Trp-Glu-Arg-^DPro-Chx-)] (cyclo(FWQY(Me)AWER[dP][Ac6c])), the EC50 was determined as 0.67 ± 0.22 µM.

`C[C@@H]1NC(=O)[C@H](Cc2ccc(O)cc2)NC(=O)[C@H](CCC(N)=O)NC(=O)[C@H](Cc2c[nH]c3ccccc23)NC(=O)[C@H](Cc2ccccc2)NC(=O)C2(CCCCC2)NC(=O)[C@H]2CCCN2C(=O)[C@H](Cc2ccccc2)NC(=O)[C@H](CCC(=O)O)NC(=O)[C@H](Cc2c[nH]c3ccccc23)NC1=O` [compound 24, cyclo(-Phe-Trp-Gln-Tyr-Ala-Trp-Glu-Phe-^DPro-Chx-)] (cyclo(FWQYAWEF[dP][Ac6c])): the EC50 amounted to 0.89 ± 0.51 µM.

On to `CC(C)C[C@@H]1NC(=O)[C@H](CCC(=O)O)NC(=O)[C@H](Cc2ccccc2)NC(=O)C2(CCCCC2)NC(=O)[C@H]2CCCN2C(=O)[C@H](Cc2c[nH]c3ccc(O)cc23)NC(=O)[C@H](CCC(=O)O)NC(=O)[C@H](Cc2c[nH]c3ccccc23)NC(=O)[C@H](C)NC(=O)[C@H](Cc2ccc(O)cc2)NC1=O` [compound 25, cyclo(-Phe-Glu-Leu-Tyr-Ala-Trp-Glu-Trp(5OH)-^DPro-Chx-)] (cyclo(FELYAWE[Trp(5-OH)][dP][Ac6c])), for which the EC50 was 0.94 ± 0.68 µM. With `CCCC1(CCC)NC(=O)[C@H]2CCCN2C(=O)[C@H](Cc2ccccc2)NC(=O)[C@H](CCC(=O)O)NC(=O)[C@H](Cc2c[nH]c3ccccc23)NC(=O)[C@H](C)NC(=O)[C@H](CC(C)C)NC(=O)[C@H](CC(C)C)NC(=O)[C@H](CCC(=O)O)NC(=O)[C@H](Cc2ccccc2)NC1=O` [compound 26, cyclo(-Phe-Glu-Leu-Leu-Ala-Trp-Glu-Phe-^DPro-Dpg-)] (cyclo(FELLAWEF[dP][Dpg])), the concentration giving a half-maximal response (EC50) was determined as 1 ± 0.5 µM. With `C[C@@H]1NC(=O)[C@H](Cc2ccccc2)NC(=O)[C@H](CCC(N)=O)NC(=O)[C@H](Cc2c[nH]c3ccccc23)NC(=O)[C@H](Cc2ccccc2)NC(=O)C2(CCCCC2)NC(=O)[C@H]2CCCN2C(=O)[C@H](Cc2ccc(O)cc2)NC(=O)[C@H](CCC(=O)O)NC(=O)[C@H](Cc2c[nH]c3ccccc23)NC1=O` [compound 27, cyclo(-Phe-Trp-Gln-Phe-Ala-Trp-Glu-Tyr-^DPro-Chx-)] (cyclo(FWQFAWEY[dP][Ac6c])), the half-maximal effective concentration (EC50) came to 0.58 µM. Take `CC(C)C[C@@H]1NC(=O)[C@H](CCC(=O)O)NC(=O)[C@H](Cc2ccccc2)NC(=O)C2(CCCCC2)NC(=O)[C@H]2CCCN2C(=O)[C@H](Cc2ccc(O)cc2)NC(=O)[C@H](Cc2c[nH]c3ccc(O)cc23)NC(=O)[C@H](Cc2c[nH]c3ccccc23)NC(=O)[C@H](C)NC(=O)[C@H](Cc2ccc(O)cc2)NC1=O` [compound 28, cyclo(-Phe-Glu-Leu-Tyr-Ala-Trp-Trp(5OH)-Tyr-^DPro-Chx-)] (cyclo(FELYAW[Trp(5-OH)]Y[dP][Ac6c])): the EC50 was 1.2 ± 0.9 µM.

The term EC50 denotes the concentration needed to bring the measured effect to its halfway point.
